Here are results for seven molecules from US20110171279A1, “POLYETHYLENIMINE BIOCIDES” (NDSU RESEARCH FOUNDATION, priority 2009, published 2011).

Molecules are shown by their SMILES. Where two headings read alike, the source gives them in different places.

Common to all, as to assay type: cell-based
For one experiment, the system named is Escherichia coli. Description: Growth reduction / MIC test against Escherichia coli in Luria-Bertani broth, absorbance 600 nm. Particulars: for MIC: Escherichia coli, read-out: E. Coli MIC; for Percent reduction in growth of Escherichia coli: Table 10. The protocol: (§1) The antimicrobial properties of the Formulations were determined by measuring the minimum inhibitory concentration (MIC) or by using an adaptation of the MIC test. […] Additional details of the MIC method can be found at Andrews, J. M., Journal of Antimicrobial Chemotherapy (2001) 48, 5-16, incorporated herein by reference in its entirety.
In accordance with the MIC test, working solutions for each Formulation were prepared by dissolving 100 mg of each Formulation in 10 mL of methanol (Sigma-Aldrich) to generate a 10 mg/mL solution. Next, 10 ml of Luria-Bertani broth was spiked with 200 μL of the mg/mL Formulation solution to achieve a final concentration of 0.2 mg/mL.
(§2) 0.2 mL of each concentration of each Formulation (spiked with E. coli) was added in triplicate to a 96-well plate. Additionally, 0.2 mL of Luria-Bertani broth without any E. coli or Formulation and 0.2 mL of Luria-Bertani broth with E. coli, but no Formulations, served as negative and positive growth controls, respectively. Plates were then placed in an incubator, at 37° C. for 24 hrs (with shaking), and then measured for growth by taking absorbance measurements at 600 nm with a multi-well plate spectrophotometer (Synergy HT). The efficacy of each Formulation was measured by determining the percent reduction in bacterial growth as a function of Formulation concentration.
Next, the antimicrobial activity of Formulations 69-77 and Reference 1 toward E. coli was measured by determining the percent reduction in bacterial growth as a function of concentration. The results for the examples were compared to various PEIs used to produce the examples.

Experiment [1] deals with Navicula incerta. Description: Growth reduction / MIC test against Navicula incerta in Guillard's F/2 medium, chlorophyll fluorescence. The following applies: Table 12; read-out: N. incerta MIC.
In the next experiment the test system is Cellulophaga lytica. Description: Growth reduction / MIC test against Cellulophaga lytica. Particulars: for MIC: Cellulophaga lytica. The method, then: as §1
(§3) In accordance with the MIC test, working solutions for each Formulation were prepared by dissolving 100 mg of each Formulation in 10 mL of methanol (Sigma-Aldrich) to generate a 10 mg/mL solution. Next, 10 ml of Guillard's F/2 medium was spiked with 200 μL of the 10 mg/mL Formulation solution to achieve a final concentration of 0.2 mg/mL.
(§4) 0.2 mL of each concentration of each Formulation (spiked with C. lytica) was added in triplicate to a 96-well plate. Additionally, 0.2 mL of Guillard's F/2 medium without any C. lytica or Formulation and 0.2 mL of Guillard's F/2 medium with C. lytica, but no Formulations, served as negative and positive growth controls, respectively. The 96-well plates were placed in an illuminated growth cabinet with a 16:8 light:dark cycle (photon flux density 33 μmol m^−2 s^−1) for 48 hrs at 18° C. and measured for chlorophyll fluorescence using a multi-well plate spectrophotometer (excitation: 360 nm; emission: 670 nm). The efficacy of each Formulation was measured by determining the percent reduction in diatom growth as a function of Formulation concentration.
(§5) The antimicrobial activity of Formulations 10-12, also derived from ETCS and PEI, was determined toward a suite of marine microorganisms, namely, Pseudoalteromonas atlantica, Cellulophaga lytica, Cobetia marina, and Halomonas pacifica. The antimicrobial activity of Formulations 10-12 was determined toward these marine microorganisms according to the methods of EXAMPLES 5-7. The MIC for each Formulation against each strain is compared to that of the PEI, ETCS, and TCS (alone) in Table 7.

The next experiment has as its system Halomonas pacifica. Description: Growth reduction / MIC test against Halomonas pacifica. Particulars: for MIC: Bisbaumannia pacifica. The method, then:
as §1, §3
0.2 mL of each H. pacifica concentration was added in triplicate to a 96-well plate. Additionally, 0.2 mL of Guillard's F/2 medium without any H. pacifica or Formulation and 0.2 mL of Guillard's F/2 medium with H. pacifica, but no Formulations, served as negative and positive growth controls, respectively. The 96-well plates were placed in an illuminated growth cabinet with a 16:8 light:dark cycle (photon flux density 33 μmol m^−2 s^−1) for 48 hrs at 18° C. and measured for chlorophyll fluorescence using a multi-well plate spectrophotometer (excitation: 360 nm; emission: 670 nm). The efficacy of each Formulation was measured by determining the percent reduction in diatom growth as a function of Formulation concentration.
as §5

The subject of experiment [2] is Staphylococcus epidermidis. Kind of experiment: Growth reduction / MIC test against Staphylococcus epidermidis in tryptic soy broth, absorbance 600 nm. The following applies: for MIC: Staphylococcus epidermidis, read-out: S. epidermidis MIC; for Percent reduction in growth of Staphylococcus epidermidis: Table 9. The method, then: as §1
In accordance with the MIC test, working solutions for each Formulation were prepared by dissolving 100 mg of each Formulation in 10 mL of methanol (Sigma-Aldrich) to generate a 10 mg/mL solution. Next, 10 ml of tryptic soy broth was spiked with 200 μL of the mg/mL Formulation solution to achieve a final concentration of 0.2 mg/mL.
as §2, with “S. epidermidis)” for “E. coli)”, “tryptic soy” for “Luria-Bertani”, “S. epidermidis” for “E. coli”, “S. epidermidis,” for “E. coli,”, “HT microplate reader, BioTek Instruments, Winooski, Vt.).” for “HT).”
For comparison purposes a benzylpiperidino biocide (“Reference 1”) was prepared using ETCS and synthetic methods similar to those described in U.S. Pat. No. 5,036,077, issued Jul. 30, 1991, and incorporated by reference in its entirety. To make Reference 1, 3.9 g of ETCS and 2 g of 4-benzylpiperidine were reacted in 30 mL of methanol. The mixture was heated at 65° C. for 48 hours. Reaction completion was confirmed by ^1H NMR, ^13C NMR, HMQC (2D) NMR and elemental analysis. The antimicrobial activity of Formulations 69-77 and Reference 1 toward S. epidermidis was measured by determining the percent reduction in bacterial growth as a function of concentration, as was done above in EXAMPLE 3.

For experiment [3], the system named is Navicula incerta. Description: Growth reduction / MIC test against Navicula incerta in Guillard's F/2 medium, chlorophyll fluorescence. The protocol:
as §1, §3
as §4, with “N. incerta)” for “C. lytica)”, “N. incerta” for “C. lytica”, “N. incerta,” for “C. lytica,”

A further experiment deals with Candida albicans. Description: Antifungal activity, percent reduction in fungal growth of Candida albicans. Particulars: Table 11. The method, then: Additionally, the antifungal activity of Formulations 69-77 and Reference 1 toward Candida albicans was measured by determining the percent reduction in fungal growth as a function of concentration.
[4] abbreviates: Table 12, read-out: C. lytica MIC.
Setting [5] is: Table 12, read-out: H. pacifica MIC.
Setting [6] is: Formulation Concentration 0.78125 μg/mL.
Setting [7] is: Formulation Concentration 1.5625 μg/mL.
The mark [8] stands for this setting: Formulation Concentration 3.125 μg/mL.
The mark [9] stands for this setting: Formulation Concentration 6.25 μg/mL.
Setting [10] is: Formulation Concentration 12.5 μg/mL.
[11] abbreviates: Formulation Concentration 25 μg/mL.
Setting [12] is: Formulation Concentration 50 μg/mL.
The mark [13] stands for this setting: Formulation Concentration 100 μg/mL.

As to `NCCN` [ethylenediamine], the MIC (with Escherichia coli (Table 12); in the experiment with Navicula incerta [1]; with Cellulophaga lytica (setting [4]); in the experiment with Halomonas pacifica (setting [5]); in experiment [2] (Table 12)) was greater than 100 µg/mL each time.

In the case of `C=CCN` [allyl amine], the MIC (with Escherichia coli (Table 12); with Navicula incerta [1]; with Cellulophaga lytica (setting [4]); with Halomonas pacifica (setting [5]); in experiment [2] (Table 12)) was greater than 100 µg/mL throughout.

Consider `CNc1ccccc1` [N-methyl aniline, N-methylaniline], for which the minimum inhibitory concentration (MIC) was greater than 100 µg/mL with Escherichia coli; greater than 100 µg/mL in the experiment on Cellulophaga lytica (read-out: C. lytica MIC, Table 12); greater than 100 µg/mL in the experiment on Halomonas pacifica (read-out: H. pacifica MIC, Table 12); greater than 100 µg/mL in the experiment on Navicula incerta [3] (read-out: N. incerta MIC); greater than 100 µg/mL in experiment [2].

Regarding `Clc1cc(Cl)c(OCC2CO2)c(Cl)c1` (stereo not drawn) [EDCP, 2-((2,4,6-trichlorophenoxy)methyl)oxirane], the “Percent reduction in growth of Escherichia coli” value in the experiment with Escherichia coli (setting [6]) was found to be 14.85%; with Escherichia coli (setting [7]), 1.60%; in the experiment on Escherichia coli (setting [8]), 0.00%; with Escherichia coli (setting [9]), 55.43%; with Escherichia coli (setting [10]), 52.95%; in the experiment with Escherichia coli (setting [11]), 61.26%. Moreover, the “Percent reduction in growth of Escherichia coli” value in the experiment with Escherichia coli (setting [12]) stood at 1.38%; in the experiment on Escherichia coli (setting [13]), 91.65%. Moreover, the “Percent reduction in growth of Candida albicans” value in the experiment with Candida albicans (setting [6]) came to 11.66%; in the experiment with Candida albicans (setting [7]), 15.25%; in the experiment on Candida albicans (setting [8]), 0.00%; in the experiment with Candida albicans (setting [9]) it was 1.45%; in the experiment on Candida albicans (setting [10]), 0.00%; in the experiment on Candida albicans (setting [11]), 0.00%. Also, the entries for the “Percent reduction in growth of Candida albicans” value in the experiment on Candida albicans (setting [12]) and with Candida albicans (setting [13]) were 21.55% and 25.83%, respectively. In addition, the “Percent reduction in growth of Staphylococcus epidermidis” value in experiment [2] (setting [6]) came to 7.58%; in experiment [2] (setting [7]), 6.34%; in experiment [2] (setting [8]), 5.04%; in experiment [2] (setting [9]), 8.44%; in experiment [2] (setting [10]), 6.20%; in experiment [2] (setting [11]) it was 8.90%. Further, the “Percent reduction in growth of Staphylococcus epidermidis” value came to 5.00% in experiment [2] (setting [12]) and 0.00% in experiment [2] (setting [13]).

With `OCCNCCO` [diethanolamine], the MIC (in the experiment with Escherichia coli (Table 12); in the experiment with Navicula incerta [1]; with Cellulophaga lytica (setting [4]); with Halomonas pacifica (setting [5]); in experiment [2] (Table 12)) was greater than 100 µg/mL in each case.

For `CC(O)CNCC(C)O` (stereo not drawn) [diisopropanolamine], the “E. Coli MIC” value in the experiment with Escherichia coli (Table 12) was greater than 100 µg/mL. The “C. lytica MIC” value in the experiment with Cellulophaga lytica (Table 12) was greater than 100 µg/mL. For the same molecule, the “H. pacifica MIC” value in the experiment on Halomonas pacifica (Table 12) was greater than 100 µg/mL. In addition, the “N. incerta MIC” value in the experiment with Navicula incerta [3] (Table 12) is greater than 100 µg/mL. For the same molecule, the “S. epidermidis MIC” value in experiment [2] (Table 12) is greater than 100 µg/mL.

On to `COCCNCCOC` [bis(methoxyethyl), bis(2-methoxyethyl)amine], for which the MIC (in the experiment on Escherichia coli (Table 12); in the experiment on Navicula incerta [1]; in the experiment with Cellulophaga lytica (setting [4]); in the experiment with Halomonas pacifica (setting [5]); in experiment [2] (Table 12)) was greater than 100 µg/mL each time.
